Data as given in patent US20260274836A1, “NOVEL HEPATOSELECTIVE POLYADENYLATING POLYMERASES INHIBITORS AND THEIR METHOD OF USE” (Baruch S. Blumberg Institute, priority 2022, published 2026).

Experiments:
[1] = Pharmacokinetics after oral gavage (PO) administration, plasma; type: in vivo, CD1 mice; design: AUClast/D: unit not given here; settings: 8 mg/kg oral; for Concentration (ng/mL), plasma: individual animals
Experimental: Protocol for pharmacokinetic and tissue distribution studies. The pharmacokinetics of the compounds was studied in CD1 mice after intravenous (IV) and oral gavage (PO) administration. Mouse PK studies was conducted at 3 mg/kg (IV) and 8 mg/kg (PO). Plasma samples obtained from dosed animals, at ten time points, including 5, 15 and 30 minutes and 1, 1.5, 2, 4, 6, 8 and 24 hr post-dose for processing to plasma, were prepared for analysis by means of a single step protein precipitation technique, by adding 200 μL of acetonitrile containing an IS mixture (labetalol, imipramine and diclofenac) to 50 μL aliquots of individual subject samples. Samples were mixed by vortex for homogeneity and then subjected to centrifugation at 4000 rpm for 10 min. The supernatant (200 μL) was collected and injected into the LC-MS/MS for analysis. Pharmacokinetic parameters will be calculated using established non-compartmental methods. The liver distribution of the compounds was studied in the PO group and liver tissues were collected at each time point after PO administration. Accurately weighed whole liver tissues were collected in a 50 mL tube, and 3 volumes per weight of water will be added. Tissue samples were homogenized and 50 μL of the homogenates will be processed along with plasma samples as described above.

OATP1B3 = biological target: T1, OATP1B3 (Homo sapiens, UniProt Q9NPD5); experiment: OATP1B3 transporter substrate uptake in OATP1B3-HEK293 cells; type: in vitro ADME
T1 construct: expressed in transfected cells; host or cells: HEK293
T1 sequence (Q9NPD5 1-702): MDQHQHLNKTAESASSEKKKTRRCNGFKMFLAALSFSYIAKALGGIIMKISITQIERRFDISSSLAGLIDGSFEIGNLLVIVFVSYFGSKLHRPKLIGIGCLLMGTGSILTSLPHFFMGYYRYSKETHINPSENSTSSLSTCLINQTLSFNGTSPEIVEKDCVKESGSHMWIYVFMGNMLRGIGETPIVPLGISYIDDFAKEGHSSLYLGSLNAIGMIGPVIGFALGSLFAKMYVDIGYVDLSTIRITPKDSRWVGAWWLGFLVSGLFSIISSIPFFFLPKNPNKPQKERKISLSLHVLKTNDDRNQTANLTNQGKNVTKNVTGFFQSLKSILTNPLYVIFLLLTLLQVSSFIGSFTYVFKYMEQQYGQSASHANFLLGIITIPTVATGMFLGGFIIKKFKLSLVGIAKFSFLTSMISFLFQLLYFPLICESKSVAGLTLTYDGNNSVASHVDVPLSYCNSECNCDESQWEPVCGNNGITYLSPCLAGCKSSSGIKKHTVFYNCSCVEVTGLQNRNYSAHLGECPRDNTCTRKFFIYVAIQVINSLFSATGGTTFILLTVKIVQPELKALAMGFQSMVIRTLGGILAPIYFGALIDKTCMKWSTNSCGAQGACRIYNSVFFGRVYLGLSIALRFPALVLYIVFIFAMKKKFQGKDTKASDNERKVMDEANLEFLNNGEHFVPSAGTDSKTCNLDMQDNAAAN
Experimental: Protocol for identification of compounds that are substrates of transporters OATPIBI and OATPIB3. Transfected HEK293 and vector control HEK293 cells were cultured in 24-well poly-D-lysine or collagen-coated tissue culture plates ([…]) for 2 and 10 minutes respectively in transport buffer (HBSSg, pH 7.4, pre-warmed to 37° C.). At a defined time point, the uptake experiments were stopped by removing dosing solution followed by two washes of ice-cold HBSSg buffer. The cells were lysed for 2 minutes with 75% ACN containing an appropriate internal standard (when available). Lysis buffer were chilled to −20° C., and the plate was kept on ice during lysis. The cell lysate was transferred into a 96-well plate for sample analysis with LC-MS/MS analysis to determine concentration of test compound in cell lysate. The uptake of test compounds was normalized by total cell protein using the BCA Protein Assay Kit following the manufacturer's protocol. The inhibitor Rifamycin SV was used to block OATP1B1 and OATP1B3 transporter activity in order to determine uptake ratios.

COc1cc2c(cc1OCCCCCCC(=O)O)C[C@@H](C(C)C)n1cc(C(=O)O)c(=O)cc1-2 [Example 6, (S)-9-((6-carboxyhexyl)oxy)-6-isopropyl-10-methoxy-2-oxo-6,7-dihydro-2H-pyrido[2,1-a]isoquinoline-3-carboxylic acid]
AUClast/D ([1]; mean): 4.33 | F ([1]; mean): 5.09% | Concentration (ng/mL), plasma ([1]; 8 h): BLOQ | Concentration (ng/mL), plasma ([1]; 24 h): BLOQ | Uptake Ratio (−/+Inhibitor) (OATP1B3; OATP1B3-HEK293 cells, test concentration 1 μM, inhibitor Rifamycin SV): 11.57 | Uptake Ratio (Transporter(−Inhibitor)/Mock(−Inhibitor)) (OATP1B3; OATP1B3-HEK293 vs mock HEK293, test concentration 1 μM): 24.80
